Test in all cases: competitive isoTOP-ABPP
What all share (type): binding

The target in experiment [1] is T1, CNOT4 CCR4-NOT transcription complex subunit 4 (Homo sapiens, UniProt O95628).
T1 construct: isoTOP-ABPP experiments performed in cell lysates (in vitro); endogenous in cells; host or cells: MDA-MB-231 soluble lysate
T1 sequence (O95628 1-575): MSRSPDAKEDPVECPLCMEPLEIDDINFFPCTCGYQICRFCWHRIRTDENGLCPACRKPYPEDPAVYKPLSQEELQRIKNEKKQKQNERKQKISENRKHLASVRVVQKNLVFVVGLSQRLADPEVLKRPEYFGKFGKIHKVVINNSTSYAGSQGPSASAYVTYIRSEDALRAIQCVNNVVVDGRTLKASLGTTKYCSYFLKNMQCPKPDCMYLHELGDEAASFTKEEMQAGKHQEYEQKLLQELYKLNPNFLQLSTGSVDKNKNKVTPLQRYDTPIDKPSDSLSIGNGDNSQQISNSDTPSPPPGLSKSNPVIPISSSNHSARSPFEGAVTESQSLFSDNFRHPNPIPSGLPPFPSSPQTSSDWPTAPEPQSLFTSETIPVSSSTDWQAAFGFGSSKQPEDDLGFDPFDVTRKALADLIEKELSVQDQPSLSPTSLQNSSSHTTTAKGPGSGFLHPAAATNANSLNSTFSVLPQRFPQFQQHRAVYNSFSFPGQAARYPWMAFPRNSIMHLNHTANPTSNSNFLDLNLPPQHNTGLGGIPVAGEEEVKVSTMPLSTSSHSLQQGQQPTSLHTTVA
The conditions noted are these: for isoTOP-ABPP ratio (R) at liganded lysine O95628_K134: 50 uM, in vitro, sol, 231. Summed up: (§1)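 Probe: STP-alkyne, 0.1 mM, 1 h RT, after fragment pretreatment of lysate (esters 50 μM; guanidinylators 100 μM). Tags: light = compound, heavy = DMSO, via CuAAC. Replicates averaged if SD <60% of mean; otherwise lowest ratio used when any R <4.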

The target in the next experiment is T2, DCTN2 Dynactin subunit 2 (Homo sapiens, UniProt Q13561).
T2 construct: isoTOP-ABPP experiments performed in cell lysates (in vitro); endogenous in cells; host or cells: soluble proteome of human cancer cell lines (MDA-MB-231, Ramos, Jurkat)
T2 sequence (Q13561 whole entry): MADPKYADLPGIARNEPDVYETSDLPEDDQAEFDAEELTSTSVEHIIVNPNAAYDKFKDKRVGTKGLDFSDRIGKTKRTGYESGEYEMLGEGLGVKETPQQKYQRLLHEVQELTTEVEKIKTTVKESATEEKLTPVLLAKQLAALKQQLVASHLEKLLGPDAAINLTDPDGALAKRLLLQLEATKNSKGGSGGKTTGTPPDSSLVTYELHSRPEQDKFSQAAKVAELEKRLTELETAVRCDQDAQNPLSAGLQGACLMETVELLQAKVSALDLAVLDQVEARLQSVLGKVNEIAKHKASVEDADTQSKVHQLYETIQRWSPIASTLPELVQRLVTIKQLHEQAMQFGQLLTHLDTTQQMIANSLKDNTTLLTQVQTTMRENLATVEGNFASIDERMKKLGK
To be noted: for isoTOP-ABPP ratio (R) at liganded lysine Q13561_K175: 50 uM, in vitro, sol, 231. Summed up: as §1

Experiment [2] addresses T3, UCHL5 Ubiquitin carboxyl-terminal hydrolase isozyme L5 (Homo sapiens, UniProt Q9Y5K5).
T3 construct: endogenous in cells; host or cells: MDA-MB-231 (soluble fraction of lysate)
T3 sequence (Q9Y5K5 1-329): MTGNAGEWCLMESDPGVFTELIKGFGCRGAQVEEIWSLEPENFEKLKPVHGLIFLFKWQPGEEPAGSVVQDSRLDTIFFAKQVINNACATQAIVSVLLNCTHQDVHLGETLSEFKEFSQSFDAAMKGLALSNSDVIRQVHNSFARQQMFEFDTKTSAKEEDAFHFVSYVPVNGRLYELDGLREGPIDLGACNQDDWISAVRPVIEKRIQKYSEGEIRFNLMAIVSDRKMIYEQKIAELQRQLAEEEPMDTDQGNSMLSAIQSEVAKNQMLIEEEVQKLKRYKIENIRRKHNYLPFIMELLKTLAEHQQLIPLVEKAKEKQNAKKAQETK
The conditions noted are these: for isoTOP-ABPP ratio (R) at liganded lysine Q9Y5K5_K323: 50 uM, in vitro, sol, 231. Summed up:
as §1

In experiment [3] the target is T4, HNRNPK Heterogeneous nuclear ribonucleoprotein K (Homo sapiens, UniProt P61978).
T4 construct: isoTOP-ABPP experiments performed in cell lysates (in vitro); endogenous in cells; host or cells: soluble proteome of human cancer cell lines (MDA-MB-231, Ramos, Jurkat)
To be noted: for isoTOP-ABPP ratio (R) at liganded lysine P61978_K405: 50 uM, in vitro, sol, 231. The essentials: as §1

As for `O=C(Oc1ccc([N+](=O)[O-])cc1[N+](=O)[O-])c1ccc2ccccc2n1` [fragment 35, 2,4-Dinitrophenyl quinoline-2-carboxylate], in experiment [1], the “isoTOP-ABPP ratio (R) at liganded lysine O95628_K134” value is on record as 1.3. On DCTN2 Dynactin subunit 2, the “isoTOP-ABPP ratio (R) at liganded lysine Q13561_K175” value is listed as 0.8. In experiment [2], the “isoTOP-ABPP ratio (R) at liganded lysine Q9Y5K5_K323” value is 1.0. Besides, the “isoTOP-ABPP ratio (R) at liganded lysine P61978_K405” value in experiment [3] is on record as 0.9.

In the case of `O=C(Oc1ccc([N+](=O)[O-])cc1[N+](=O)[O-])c1ccc(-c2ccccc2)cc1` [fragment 37, 2,4-Dinitrophenyl [1,1′-biphenyl]-4-carboxylate], the “isoTOP-ABPP ratio (R) at liganded lysine O95628_K134” value in experiment [1] is recorded as 1.0. For the same compound, the “isoTOP-ABPP ratio (R) at liganded lysine Q13561_K175” value on DCTN2 Dynactin subunit 2 stood at 0.9. In experiment [2], the “isoTOP-ABPP ratio (R) at liganded lysine Q9Y5K5_K323” value was found to be 0.9. In experiment [3], the “isoTOP-ABPP ratio (R) at liganded lysine P61978_K405” value is reported as 0.9.

For the compound `O=C(Oc1ccc([N+](=O)[O-])cc1[N+](=O)[O-])c1ccc(Oc2ccccc2)cc1` [fragment 39, 2,4-Dinitrophenyl 4-phenoxybenzoate], the “isoTOP-ABPP ratio (R) at liganded lysine O95628_K134” value in experiment [1] came out at 1.0. On DCTN2 Dynactin subunit 2, the “isoTOP-ABPP ratio (R) at liganded lysine Q13561_K175” value is 0.8. Moreover, the “isoTOP-ABPP ratio (R) at liganded lysine Q9Y5K5_K323” value in experiment [2] came out at 0.9. The “isoTOP-ABPP ratio (R) at liganded lysine P61978_K405” value in experiment [3] is given as 0.8.

In the case of `O=C(Oc1ccc([N+](=O)[O-])cc1[N+](=O)[O-])c1ccccc1Nc1cccc(C(F)(F)F)c1` [fragment 40, 2,4-Dinitrophenyl 2-((3-(trifluoromethyl)phenyl)amino)benzoate], the “isoTOP-ABPP ratio (R) at liganded lysine O95628_K134” value in experiment [1] amounted to 1.1. Further, at DCTN2 Dynactin subunit 2, the “isoTOP-ABPP ratio (R) at liganded lysine Q13561_K175” value was 0.9. The “isoTOP-ABPP ratio (R) at liganded lysine Q9Y5K5_K323” value in experiment [2] was 1.0. Also, in experiment [3], the “isoTOP-ABPP ratio (R) at liganded lysine P61978_K405” value came to 0.9.

Turning to `CC(C)(C)OC(=O)NCCCC(=O)Oc1ccc([N+](=O)[O-])cc1[N+](=O)[O-]` [fragment 41, 2,4-Dinitrophenyl 4-((tert-butoxycarbonyl)amino)butanoate], in experiment [1], the “isoTOP-ABPP ratio (R) at liganded lysine O95628_K134” value came to 1.3. The “isoTOP-ABPP ratio (R) at liganded lysine Q13561_K175” value at DCTN2 Dynactin subunit 2 is reported as 1.3. In addition, the “isoTOP-ABPP ratio (R) at liganded lysine Q9Y5K5_K323” value in experiment [2] is 1.0. Moreover, in experiment [3], the “isoTOP-ABPP ratio (R) at liganded lysine P61978_K405” value is 1.0.

For the compound `CC(=O)Oc1ccc([N+](=O)[O-])cc1[N+](=O)[O-]` [fragment 43, 2,4-Dinitrophenyl acetate], the “isoTOP-ABPP ratio (R) at liganded lysine O95628_K134” value in experiment [1] is 1.3. The “isoTOP-ABPP ratio (R) at liganded lysine Q13561_K175” value at DCTN2 Dynactin subunit 2 was 0.6. Moreover, in experiment [2], the “isoTOP-ABPP ratio (R) at liganded lysine Q9Y5K5_K323” value is listed as 1.0. In addition, the “isoTOP-ABPP ratio (R) at liganded lysine P61978_K405” value in experiment [3] is 1.3.

As to `N#Cc1ccc(C(=O)Oc2ccc([N+](=O)[O-])cc2[N+](=O)[O-])cc1` [fragment 44, 2,4-Dinitrophenyl 4-cyanobenzoate], the “isoTOP-ABPP ratio, lysine O95628_K134” value in experiment [1] (50 uM_231_sol_in vitro) is on record as 2.0. Besides, the “isoTOP-ABPP ratio, lysine Q13561_K175” value on DCTN2 Dynactin subunit 2 (50 uM_231_sol_in vitro) is on record as 0.8. The “isoTOP-ABPP ratio, lysine Q9Y5K5_K323” value in experiment [2] (50 uM_231_sol_in vitro) is 0.9. In addition, the “isoTOP-ABPP ratio, lysine P61978_K405” value in experiment [3] (50 uM_231_sol_in vitro) is reported as 1.0.

Regarding `O=C(CCc1ccc2c(c1)OCO2)Oc1ccc([N+](=O)[O-])cc1[N+](=O)[O-]` [fragment 45, 2,4-Dinitrophenyl 3-(benzo[d][1,3]dioxol-5-yl)propanoate], the “isoTOP-ABPP ratio, lysine O95628_K134” value in experiment [1] (50 uM_231_sol_in vitro) is 2.8. Also, at DCTN2 Dynactin subunit 2 (50 uM_231_sol_in vitro), the “isoTOP-ABPP ratio, lysine Q13561_K175” value turned out to be 1.6. Moreover, the “isoTOP-ABPP ratio, lysine Q9Y5K5_K323” value in experiment [2] (50 uM_231_sol_in vitro) turned out to be 1.5. Moreover, in experiment [3] (50 uM_231_sol_in vitro), the “isoTOP-ABPP ratio, lysine P61978_K405” value amounted to 1.1.

As to `O=C(ON1C(=O)CCC1=O)c1cc(C(F)(F)F)cc(C(F)(F)F)c1` [fragment 46, 3,5-Bis(trifluoromethyl)benzoic acid NHS ester], the “isoTOP-ABPP ratio, lysine O95628_K134” value in experiment [1] (50 uM_231_sol_in vitro) was 5.2. In addition, the “isoTOP-ABPP ratio, lysine Q13561_K175” value on DCTN2 Dynactin subunit 2 (50 uM_231_sol_in vitro) amounted to 0.8. Besides, the “isoTOP-ABPP ratio, lysine Q9Y5K5_K323” value in experiment [2] (50 uM_231_sol_in vitro) is given as 1.0. Further, the “isoTOP-ABPP ratio, lysine P61978_K405” value in experiment [3] (50 uM_231_sol_in vitro) was determined as 1.1.

With `COC(=O)NC(=NC(=O)OCC1c2ccccc2-c2ccccc21)n1cccn1` [fragment 49, N-Methoxycarbonyl-N′-9-fluorenylmethoxycarbonyl-pyrazole-1-carboxamidine], the “isoTOP-ABPP ratio, lysine O95628_K134” value in experiment [1] (100 uM_231_sol_in vitro) turned out to be 1.4. Further, the “isoTOP-ABPP ratio, lysine Q13561_K175” value on DCTN2 Dynactin subunit 2 (100 uM_231_sol_in vitro) is 1.5. In experiment [2] (100 uM_231_sol_in vitro), the “isoTOP-ABPP ratio, lysine Q9Y5K5_K323” value came to 9.0. Also, the “isoTOP-ABPP ratio, lysine P61978_K405” value in experiment [3] (100 uM_231_sol_in vitro) stood at 1.9.

For `CC(C)(C)OC(=O)N=C(NC(=O)OC(C)(C)C)n1cccn1` [fragment 50, reference compound], the “isoTOP-ABPP ratio, lysine O95628_K134” value in experiment [1] (100 uM_231_sol_in vitro) turned out to be 1.7. Besides, the “isoTOP-ABPP ratio, lysine Q13561_K175” value at DCTN2 Dynactin subunit 2 (100 uM_231_sol_in vitro) is 1.3. In addition, the “isoTOP-ABPP ratio, lysine Q9Y5K5_K323” value in experiment [2] (100 uM_231_sol_in vitro) came to 2.2. In addition, the “isoTOP-ABPP ratio, lysine P61978_K405” value in experiment [3] (100 uM_231_sol_in vitro) is 1.3.

Regarding `NC(=O)c1cc(C(F)(F)F)cc(C(F)(F)F)c1` [fragment 51, reference compound], the “isoTOP-ABPP ratio, lysine O95628_K134” value in experiment [1] (50 uM_231_sol_in vitro) was determined as 0.9. In addition, at DCTN2 Dynactin subunit 2 (50 uM_231_sol_in vitro), the “isoTOP-ABPP ratio, lysine Q13561_K175” value turned out to be 0.9. Also, the “isoTOP-ABPP ratio, lysine Q9Y5K5_K323” value in experiment [2] (50 uM_231_sol_in vitro) was found to be 1.0. Also, in experiment [3] (50 uM_231_sol_in vitro), the “isoTOP-ABPP ratio, lysine P61978_K405” value is on record as 1.2.

Source of the values: patent US20210255193A1, “LYSINE REACTIVE PROBES AND USES THEREOF” (The Scripps Research Institute, priority 2017, published 2021).
